Where two headings read alike, the source gives them in different places.
Assays:
Human Top1 (HTop1) = target: T1, Human Top1 (HTop1) (Homo sapiens, UniProt P11387); assay: Plasmid DNA relaxation assay, HTop1; type: biochemical; conditions: averages of three experiments, read-out: HTop1 inhibition (EC50)
T1 construct: made in house; host or cells: Sf-9 insect cells infected with recombinant baculovirus (gift from Prof. J. J. Champoux)
T1 sequence (P11387 1-765): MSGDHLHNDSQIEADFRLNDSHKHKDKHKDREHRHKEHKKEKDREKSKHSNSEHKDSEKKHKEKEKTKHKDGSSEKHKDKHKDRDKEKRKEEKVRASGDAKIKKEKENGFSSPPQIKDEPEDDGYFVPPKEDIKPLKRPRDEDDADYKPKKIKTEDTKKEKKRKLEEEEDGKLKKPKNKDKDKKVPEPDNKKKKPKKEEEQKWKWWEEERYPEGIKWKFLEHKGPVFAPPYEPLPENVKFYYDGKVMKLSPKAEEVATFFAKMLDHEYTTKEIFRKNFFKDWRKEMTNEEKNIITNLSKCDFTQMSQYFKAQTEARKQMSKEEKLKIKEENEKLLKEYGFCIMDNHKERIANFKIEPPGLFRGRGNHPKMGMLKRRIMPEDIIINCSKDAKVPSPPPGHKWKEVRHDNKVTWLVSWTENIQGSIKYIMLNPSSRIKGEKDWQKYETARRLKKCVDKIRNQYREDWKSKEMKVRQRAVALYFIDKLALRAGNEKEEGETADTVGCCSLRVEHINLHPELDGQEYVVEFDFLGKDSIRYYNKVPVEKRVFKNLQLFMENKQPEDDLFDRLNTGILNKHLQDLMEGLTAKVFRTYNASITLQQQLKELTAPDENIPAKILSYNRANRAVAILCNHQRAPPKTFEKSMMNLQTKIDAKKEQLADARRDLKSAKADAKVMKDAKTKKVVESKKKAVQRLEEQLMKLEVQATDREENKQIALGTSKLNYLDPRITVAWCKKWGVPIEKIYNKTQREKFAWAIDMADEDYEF
Description: To investigate the inhibitory effect of our library compounds on the DNA relaxation activity of the recombinant Human and Leishmania topoisomerase 1 (Table 2), assays were performed involving supercoiled plasmid DNA, the enzymes (HTop1 and LdTop1) and our molecules. The enzymes were purified by the standard literature procedure.
(§1) The type I DNA topoisomerase are assayed by decreased mobility of the relaxed isomers of supercoiled pBS (SK^+) [pBlue-script (SK^+)] DNA in agarose gel. The relaxation assay was carried out as described previously with LdTop1B and HTop I, diluted in the relaxation buffer (25 mM Tris–HCl, pH 7.5, 5% glycerol, 0.5 mM DTT, 10 mM MgCl2, 50 mM KCl, […] and […] BSA) and supercoiled plasmid pBS (SK^+) DNA (85–95% were negatively supercoiled, with remainder being nicked circles)[9][28][29]. The reconstituted enzyme LdTop1B was assayed at 50 mM KCl concentration as described before. For all kinetic studies, the reaction mixtures containing the buffer and DNA were heated to 37 °C before addition of the enzymes. The reactions were rapidly quenched using stop solution and kept on ice. The gels were stained with ethidium bromide (EtBr) ([…]) and the amount of supercoiled monomer DNA band fluorescence were quantified by integration using Gel Doc 2000 under UV illumination (Bio-Rad Quantity One Software), as described previously.
The wild-type HTop1 (91 kDa) was purified from Sf-9 insect cells infected with the recombinant baculovirus (a kind gift from Prof. J. J. Champoux). Approximately, 1 * 10^9 Sf-9 cells were infected with the recombinant virus, and cells were harvested after 48-h of infection. The cells were lysed and enzyme was purified as described. Briefly, at 48 h post-infection, approximately 3 * 10^9 Sf-9 cells were harvested by centrifugation for 5 min at 400 * g. The cells were resuspended in 1 liter of ice-cold phosphate-buffered saline and centrifuged for 5 min at 400 * g. The nuclei were washed twice in 80 ml of lysis buffer minus Triton X-100 and resuspended in 40 ml of resuspension buffer (50 mM KCl, 10 mM Tris-Cl, pH 7.5, 2 mM MgCl2, 25 mM DTT, 0.4 mg/ml phenylmethylsulfonyl fluoride, 0.12 mg/ml aprotinin). The nuclear extract was stirred for 5 min at ~200 rpm. With continued stirring, 50 ml of polyethylene glycol (PEG) buffer (18% PEG 8000, 1 M NaCl, 10% glycerol) was added dropwise in order to precipitate the DNA. The PEG precipitate was pelleted by centrifugation and the resulting PEG supernatant was dialyzed against 4 liters of potassium phosphate buffer. The dialyzed PEG supernatant passed over a 10-ml bed volume of phosphocellulose (Whatman P11) equilibrated with PPB. The HTop1 flowed through the PS column and then passed over a Mono Q column followed by loaded onto a Mono S column. The Mono S column was eluted with a 25-ml 50–200 mM KPO4, pH 7.4, gradient. […] The peak Mono S fractions were pooled, concentrated with an Amicon ultrafiltration cell, dialyzed into storage buffer (50% glycerol, 10 mM Tris-hydrochloride, pH 7.5, 1 mM DTT, 1 mM EDTA), and stored at −20 °C.

LdTop1 = LdTop1 (Leishmania donovani, UniProt A0A3Q8IHS4+Q8WQM6); assay: Preincubation DNA relaxation inhibition assay, LdTop1; type: biochemical
Description: To interrogate whether compound 4 interacts with the enzyme, it was preincubated with LdTop1 at different concentration for 5 minutes at 37 °C before the addition of substrate DNA (Fig. 9a).
All the experiments were conducted thrice and representative data from once set of them are expressed as mean ± SD.
as §1

[1] = system: L. donovani AG83 promastigotes; assay: MTT assay on extracellular promastigotes; type: cell-based; conditions: Leishmania donovani, 12 h, read-out: Anti-promastigote activity IC50
Description: Next, compound 4 was screened against extracellular promastigotes.
L. donovani AG83 promastigotes (3.0 × 10^6 cells/ml) are incubated with different concentrations of drugs/compounds under study (1, 2, 5, 10 and 20 μM) for 12 h, following which the survival percentage is estimated by MTT assay. Yellow MTT (3-(4,5-dimethylthiazol- 2-yl)-2,5-diphenyltetrazolium bromide, a tetrazole) is reduced to purple formazan in the mitochondria of living cells. The formazan is then solubilized, and the concentration is determined by optical density at 570 nm. Metabolically active cells convert MTT to formazan, thereby generating a quantitative measure of viability and cytotoxicity. Percentage of viable promastigotes in each treatment groups are determined with respect to untreated control cells.

LdTop1, sequence (Q8WQM6 entry or part of it): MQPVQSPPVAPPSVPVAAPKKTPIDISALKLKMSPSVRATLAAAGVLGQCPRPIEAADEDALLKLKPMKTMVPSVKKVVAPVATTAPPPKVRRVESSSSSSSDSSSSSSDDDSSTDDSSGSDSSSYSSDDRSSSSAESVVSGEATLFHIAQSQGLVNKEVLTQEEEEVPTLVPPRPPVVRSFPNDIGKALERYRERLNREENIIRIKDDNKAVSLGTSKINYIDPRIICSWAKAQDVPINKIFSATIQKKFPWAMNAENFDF
LdTop1, sequence (A0A3Q8IHS4 entry or part of it): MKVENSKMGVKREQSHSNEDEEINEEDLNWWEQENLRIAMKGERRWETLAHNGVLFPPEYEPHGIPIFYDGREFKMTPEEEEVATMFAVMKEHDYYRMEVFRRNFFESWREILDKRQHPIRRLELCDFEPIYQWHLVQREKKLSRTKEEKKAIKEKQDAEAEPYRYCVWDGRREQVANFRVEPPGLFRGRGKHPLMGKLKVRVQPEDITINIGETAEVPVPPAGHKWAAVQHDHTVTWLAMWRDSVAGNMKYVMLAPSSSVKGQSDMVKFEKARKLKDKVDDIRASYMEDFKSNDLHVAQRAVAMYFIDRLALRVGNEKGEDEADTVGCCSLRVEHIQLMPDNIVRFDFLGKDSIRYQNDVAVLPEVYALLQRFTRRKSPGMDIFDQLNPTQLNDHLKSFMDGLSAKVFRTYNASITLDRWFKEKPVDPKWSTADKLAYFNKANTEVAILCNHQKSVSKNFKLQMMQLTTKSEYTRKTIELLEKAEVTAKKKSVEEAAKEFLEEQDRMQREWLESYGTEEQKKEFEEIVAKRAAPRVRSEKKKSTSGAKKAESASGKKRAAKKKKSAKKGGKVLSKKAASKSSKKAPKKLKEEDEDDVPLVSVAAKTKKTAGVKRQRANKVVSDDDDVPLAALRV

EC50 (Human Top1 (HTop1)): > 100000 nM
inhibition at 0.62 µM (LdTop1; pre-incubation, 0.62 uM, read-out: % inhibition, mean data): 27.4%
inhibition at 1.25 µM (LdTop1; pre-incubation, 1.25 uM, read-out: % inhibition, mean data): 49%
inhibition at 2.5 µM (LdTop1; pre-incubation, 2.5 uM, read-out: % inhibition, mean data): 65.9%
inhibition at 5 µM (LdTop1; pre-incubation, 5 uM, read-out: % inhibition, mean data): 91.2%
inhibition at 10 µM (LdTop1; pre-incubation, 10 uM, read-out: % inhibition, mean data): 97.4%
inhibition at 20 µM (LdTop1; pre-incubation, 20 uM, read-out: % inhibition, mean data): ~100%
EC50 (LdTop1; preincubated with LdTop1 5 min 37 °C before DNA, read-out: EC50, preincubation assay): 1.72 ± 0.23 µM
inhibition at 0.62 µM (LdTop1; read-out: % inhibition (CPT 100%), data 1, pre-incubation, 0.62 uM): 27.1%
inhibition at 1.25 µM (LdTop1; read-out: % inhibition (CPT 100%), data 1, pre-incubation, 1.25 uM): 48.2%
inhibition at 2.5 µM (LdTop1; read-out: % inhibition (CPT 100%), data 1, pre-incubation, 2.5 uM): 67.4%
inhibition at 5 µM (LdTop1; read-out: % inhibition (CPT 100%), data 1, pre-incubation, 5 uM): 91.4%
inhibition at 10 µM (LdTop1; read-out: % inhibition (CPT 100%), data 1, pre-incubation, 10 uM): 97.2%
inhibition at 20 µM (LdTop1; read-out: % inhibition (CPT 100%), data 1, pre-incubation, 20 uM): 100%
inhibition at 0.62 µM (LdTop1; read-out: % inhibition (CPT 100%), data 2, pre-incubation, 0.62 uM): 27.7%
inhibition at 1.25 µM (LdTop1; read-out: % inhibition (CPT 100%), data 2, pre-incubation, 1.25 uM): 49.8%
inhibition at 2.5 µM (LdTop1; read-out: % inhibition (CPT 100%), data 2, pre-incubation, 2.5 uM): 64.5%
inhibition at 5 µM (LdTop1; read-out: % inhibition (CPT 100%), data 2, pre-incubation, 5 uM): 91%
inhibition at 10 µM (LdTop1; read-out: % inhibition (CPT 100%), data 2, pre-incubation, 10 uM): 97.5%
inhibition at 20 µM (LdTop1; read-out: % inhibition (CPT 100%), data 2, pre-incubation, 20 uM): 100%
EC50 (LdTop1; supplement sheet, pre-incubation, concentrations in uM, read-out: EC50 of 4-PI): 1.72 µM
IC50 [1]: 4210 ± 210 nM
Structure (SMILES): Cc1cc2c(c(=O)[nH]1)C(=O)O/C2=C\c1ccc(O)c(O)c1 [Compound 4]

Reference: paper PMC4879574, “Identification of Leishmania donovani Topoisomerase 1 inhibitors via intuitive scaffold hopping and bioisosteric modification of known Top 1 inhibitors” (Scientific Reports, 2016)
